According to the supplement of paper PMC11208160:

Experiment: recombinant barcode read abundance after kanamycin selection (control-corrected) (log10(CPM+1)); higher = more efficient recombination; sequences stand for … in AGTGCAGAGAAAATCGGCCAGTTTTCTCTGCCTGCAGTCCGCATGCCGT…AGATTTATGCAGCGGACTGCCTTTCTCCCAAAGTGATAAACCGGACAGTATCATGGACCGGTTTTCCCGGTAATCCGTATTTGCAAGGTTGGTTTCACT; site = the 11-nt target
In short: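 Recombination efficiency in this pooled E. coli screen uses counts per million of barcodes at recombinant junctions, averaged and corrected against the control. The reported form is log10(CPM+1). Two replicates were plated on chloramphenicol/ampicillin LB agar as control and two on chloramphenicol/ampicillin/kanamycin with 0.1 mM IPTG.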
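Further: IS621 recombinase and bridge RNA in Escherichia coli cells.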

Sequence | recombinant barcode read abundance (log10)
GGAATGTCTTGGGTTCTAACCTGTTGCCT (site GGAATGTCTAG) | 2.09
GGAATGTCTTGGGTTCTAACCTGTTGCCT (site GTAATGTCTAG) | 0.0368
GGAATTCCTTGGGTTCTAACCTGTTGCCT (site GGAATACCTAG) | 0.129
GGAATTCCTTGGGTTCTAACCTGTTGCCT (site GGAATCCCTAG) | 0
GGAATTCCTTGGGTTCTAACCTGTTGCCT (site GGAATGCCTAG) | 0.0669
GGAATTCCTTGGGTTCTAACCTGTTGCCT (site GGAATTCCTAG) | 0.0376
GGACAATCTTGGGTTCTAACCTGTTGCCT (site GGACAATCTAG) | 1.53
GGACAATCTTGGGTTCTAACCTGTTGCCT (site GGACCATCTAG) | 0.174
GGACAATCTTGGGTTCTAACCTGTTGCCT (site GGACGATCTAG) | 0.376
GGACAATCTTGGGTTCTAACCTGTTGCCT (site GGACTATCTAG) | 0.0608
GGACATGCTTGGGTTCTAACCTGTTGCGT (site CGACATACTAC) | 0.219
GGACATGCTTGGGTTCTAACCTGTTGCGT (site GGACATGCTAC) | 2.7
GGACCGCCTTGGGTTCTAACCTGTTGCCT (site CGATCGCCTAG) | 0.129
GGACCGCCTTGGGTTCTAACCTGTTGCCT (site GGACCGCCTAG) | 0.626
GGACGAGCTTGGGTTCTAACCTGTTGCTG (site ATCTATACTAG) | 0.0905
GGACGAGCTTGGGTTCTAACCTGTTGCTG (site GGACGAGCTCA) | 2.46
GGACGGACTTGGGTTCTAACCTGTTGCCA (site GGACGGACTTG) | 1.68
GGACGGACTTGGGTTCTAACCTGTTGCCA (site GGTCGGACTTG) | 0.417
GGACTATCTTGGGTTCTAACCTGTTGCCT (site GGACAATCTAG) | 0.104
GGACTATCTTGGGTTCTAACCTGTTGCCT (site GGACCATCTAG) | 0.297

Sequence | recombinant barcode read abundance (log10)
GGACTATCTTGGGTTCTAACCTGTTGCCT (site GGACGATCTAG) | 0.011
GGACTATCTTGGGTTCTAACCTGTTGCCT (site GGACTATCTAG) | 1.18
GGACTCACTTGGGTTCTAACCTGTTGCCT (site GGACTCACTAG) | 1.77
GGACTCACTTGGGTTCTAACCTGTTGCCT (site GGATTCTCTAG) | 0.15
GGAGAACCTTGGGTTCTAACCTGTTGCCT (site AGAGAACCTAG) | 1.85
GGAGAACCTTGGGTTCTAACCTGTTGCCT (site CGAGAACCTAG) | 0.492
GGAGAACCTTGGGTTCTAACCTGTTGCCT (site GGAGAACCTAG) | 2.48
GGAGAACCTTGGGTTCTAACCTGTTGCCT (site TGAGAACCTAG) | 1.56
GGAGAGGCTTGGGTTCTAACCTGTTGCCT (site GGAGAAGCTAG) | 0.893
GGAGAGGCTTGGGTTCTAACCTGTTGCCT (site GGAGACGCTAG) | 0.143
GGAGAGGCTTGGGTTCTAACCTGTTGCCT (site GGAGAGGCTAG) | 1.54
GGAGAGGCTTGGGTTCTAACCTGTTGCCT (site GGAGATGCTAG) | 0.0967
GGAGATGCTTGGGTTCTAACCTGTTGCCT (site GGAGAAGCTAG) | 0.783
GGAGATGCTTGGGTTCTAACCTGTTGCCT (site GGAGACGCTAG) | 0.291
GGAGATGCTTGGGTTCTAACCTGTTGCCT (site GGAGAGGCTAG) | 0.226
GGAGATGCTTGGGTTCTAACCTGTTGCCT (site GGAGATGCTAG) | 1.74
GGAGCAGCTTGGGTTCTAACCTGTTGCCT (site GGAGCACCTAG) | 0.223
GGAGCAGCTTGGGTTCTAACCTGTTGCCT (site GGAGCAGCTAG) | 1.16
GGAGCCTCTTGGGTTCTAACCTGTTGCTC (site GGAGCCTCTGA) | 1.7
GGAGCCTCTTGGGTTCTAACCTGTTGCTC (site GGGGCCTCTCA) | 0.177

Sequence | recombinant barcode read abundance (log10)
GGAGCTCCTTGGGTTCTAACCTGTTGCCG (site ACTCACACTAA) | 0.152
GGAGCTCCTTGGGTTCTAACCTGTTGCCG (site GGAGCTCCTCG) | 0.846
GGAGGGTCTTGGGTTCTAACCTGTTGCTT (site AGAGGGTCTAA) | 0.693
GGAGGGTCTTGGGTTCTAACCTGTTGCTT (site CGAGGGTCTAA) | 0.229
GGAGGGTCTTGGGTTCTAACCTGTTGCTT (site GGAGGGTCTAA) | 1.72
GGAGGGTCTTGGGTTCTAACCTGTTGCTT (site TGAGGGTCTAA) | 0.292
GGATACACTTGGGTTCTAACCTGTTGCCG (site GGATACACTCG) | 1.66
GGATACACTTGGGTTCTAACCTGTTGCCG (site TAGACGGCTAT) | 0.342
GGATACACTTGGGTTCTAACCTGTTGCGT (site GGATACACTAC) | 2.76
GGATACACTTGGGTTCTAACCTGTTGCGT (site GGATAGACTAC) | 0.0769
GGATCCACTTGGGTTCTAACCTGTTGCCT (site AGATCCACTAG) | 0.306
GGATCCACTTGGGTTCTAACCTGTTGCCT (site CGATCCACTAG) | 0.0861
GGATCCACTTGGGTTCTAACCTGTTGCCT (site GGATCCACTAG) | 0.399
GGATCCACTTGGGTTCTAACCTGTTGCCT (site TGATCCACTAG) | 0.139
GGATCCTCTTGGGTTCTAACCTGTTGCAT (site GGATCCTCTAT) | 1.69
GGATCCTCTTGGGTTCTAACCTGTTGCAT (site GGCTCCTCTAT) | 0.149
GGATCTACTTGGGTTCTAACCTGTTGCCT (site GAATCTACTAG) | 0.174
GGATCTACTTGGGTTCTAACCTGTTGCCT (site GCATCTACTAG) | 0.514
GGATCTACTTGGGTTCTAACCTGTTGCCT (site GGATCTACTAG) | 0.235
